Among the data in patent EP4775208A1, “USE OF PRMT5 INHIBITOR IN TREATMENT OF TUMORS OR CANCERS” (Apeiron Therapeutics (Hong Kong) Ltd., priority 2023, dated 2025) are IC50 values, retold here.

The test system of assay [1] is HCT-116 MTAP(-/-) deficient cells. The assay is described as follows: Inhibition of proliferation of HCT-116 MTAP(-/-) deficient cells (Cell-Titer Glo). In kind it is cell-based. The conditions noted are these: Homo sapiens, HCT-116, 192 h, 8 days. As to the method: Test 1: Compound's inhibitory activity on proliferation of HCT-116 MTAP(-/-) deficient cells.
Materials and Cells: HCT-116 MTAP(-/-) deficient cells obtained from Kyinno Bio (China); RPMI-1640 medium, fetal bovine serum, and penicillin-streptomycin purchased from Thermo Fisher Scientific (America); 384-well plates from PerkinElmer (America); Cell-Titer Glo assay kit from Promega (America).
Cell Culture: HCT116 MTAP(-/-) deficient cells were cultured in RPMI 1640 medium containing 10% fetal bovine serum and 1% penicillin-streptomycin at 37°C, 5% CO2. Only cells in logarithmic growth phase were used for experiments.
Cell Proliferation Inhibition Assay: The compound's inhibitory activity on HCT-116 MTAP(-/-) deficient cells was assessed using the Cell-Titer Glo assay kit. Adjusting cell concentration, 40 µL was seeded into a 384-well plate and cultured overnight at 37°C, 5% CO2. Each well received 40 nL of the compound, achieving concentrations from 0 to 10,000 nM (starting concentration 10,000 nM, 3-fold dilution, 10 points), with 0.1% DMSO. The cell plate was incubated for 8 days at 37°C, 5% CO2. Cell-Titer Glo reagent (40 µL) was added to measure cell viability.

Assay [2] has as its system HCT-116 MTAP wild-type cells. The assay is described as follows: Inhibition of proliferation of HCT-116 MTAP wild-type cells (Cell-Titer Glo). Format: cell-based. The note with it: Homo sapiens, HCT-116, 192 h, 8 days. As to the method: Test 2: Compound's inhibitory activity on proliferation of HCT-116 MTAP wild-type cells.
Materials and Cells: HCT-116 MTAP wild-type cells obtained from Kyinno Bio (China); RPMI-1640 medium, fetal bovine serum, and penicillin-streptomycin purchased from Thermo Fisher Scientific (America); 384-well plates from PerkinElmer (America); Cell-Titer Glo assay kit from Promega (America).
Cell Culture: HCT116 MTAP wild-type cells were cultured in RPMI 1640 medium containing 10% fetal bovine serum and 1% penicillin-streptomycin at 37°C, 5% CO2. Only cells in logarithmic growth phase were used for experiments.
Cell Proliferation Inhibition Assay: The compound's inhibitory activity on HCT-116 MTAP wild-type cells was assessed using the Cell-Titer Glo assay kit. Adjusting cell concentration, 40 µL was seeded into a 384-well plate and cultured overnight at 37°C, 5% CO2. Each well received 40 nL of the compound, achieving concentrations from 0 to 10,000 nM (starting concentration 10,000 nM, 3-fold dilution, 10 points), with 0.1% DMSO. The cell plate was incubated for 8 days at 37°C, 5% CO2. Cell-Titer Glo reagent (40 µL) was added to measure cell viability.

Molecules are shown by their SMILES.

The term IC50 denotes the concentration at which inhibition is half-maximal. A low value points to greater potency. Consider `CC1OC[C@@H](N(C)C(=O)c2ccc3nc(N)c4cncn4c3c2)c2cc(C(F)(F)F)ccc21` (stereo partly drawn) [Example 19, 4-amino-N-methyl-N-((4S)-1-methyl-6-(trifluoromethyl)isochroman-4-yl)imidazo[1,5-a]quinoxaline-8-carbox amide], for which the figures for the IC50 in assay [1] and in assay [2] were 23.2 nM and 2230 nM, respectively.
Regarding `CN(C(=O)c1ccc2nc(N)c3cncn3c2c1)[C@@H]1COc2cc(P(C)(C)=O)ccc21` [Example 20, (S)-4-amino-N-(6-(dimethylphosphoryl)-2,3-dihydrobenzofuran-3-yl)-N-methylimidaz o[1,5-a]quinoxaline-8-carboxamide], the IC50 was more than 3000 nM in assay [1] and more than 10000 nM in assay [2].
Regarding `Cc1ncc(-c2ccc3c(c2)C(C)OC[C@H]3N(C)C(=O)c2ccc3nc(N)c4cncn4c3c2)cn1` (stereo partly drawn) [Example 21, 4-amino-N-methyl-N-((4S)-1-methyl-7-(2-methylpyrimidin-5-yl)isochroman-4-yl)imid azo[1,5-a]quinoxaline-8-carboxamide], the results for the IC50 in assay [1] and in assay [2] were 14.8 nM and 2130 nM, respectively.
Turning to `CN(C(=O)c1ccc2nc(N)c3cncn3c2c1)[C@@H]1CCc2cc(C(F)(F)F)ncc21` [Example 23, (R)-4-amino-N-methy 1-N-(3-(trifluoromethy 1)-6,7-dihydro-5H-cyclopenta[c]pyridin-7-yl)imidazo[1,5-a]quinox aline-8-carboxamide], the IC50 in assay [1] is 120 nM; in assay [2] it was more than 10000 nM.
Taken in the same sequence, the figures for `CN(C(=O)c1cc2c(cn1)nc(N)c1cncn12)[C@@H]1CCc2cc(C(F)(F)F)ncc21` [Example 24, (R)-4-amino-N-methy 1-N-(3-(trifluoromethy 1)-6,7-dihydro-5H-cyclopenta[c]pyridin-7-yl)imidazo[1,5-a]pyrido [3,4-e]pyrazine-8-carb oxamide] were 148 nM and more than 10000 nM.
With `CN(C(=O)c1ccc2nc(N)c3cncn3c2c1)[C@@H]1CCOc2cc(C(F)(F)F)ccc21` [Example 25, (R)-4-amino-N-methy 1-N-(7-(trifluoromethy 1)chroman-4-yl)imida zo[1,5-a]quinoxaline-8-carboxamide], the values for the IC50 in assay [1] and in assay [2] were 177 nM and more than 10000 nM, respectively.
Regarding `CN(C(=O)c1ccc2nc(N)c3cncn3c2c1)[C@@H]1COc2cc(C(F)(F)F)ncc21` [Example 26, (S)-4-amino-N-methy 1-N-(6-(trifluoromethy 1)-2,3-dihydrofuro[3,2-c]pyridin-3-yl)imidaz o[1,5-a]quinoxaline-8-carboxamide], the IC50 in assay [1] is 67.7 nM; in assay [2] it was more than 10000 nM.
The matching figures for `CN(C(=O)c1cc2c(cc1Cl)nc(N)c1cncn12)[C@@H]1COc2cc(C(F)(F)F)ccc21` [Example 27, (S)-4-amino-7-chloro-N-methyl-N-(6-(trifluoromethyl)-2,3-dihydrobenzofuran-3-yl)imi dazo[1,5-a]quinoxaline-8-carboxamide]: 4.4 nM and 842 nM.
The matching figures for `CN(C(=O)c1ccc2nc(N)c3cncn3c2c1)[C@@H]1COc2cc(S(C)(=O)=O)ccc21` [Example 28, (S)-4-amino-N-methy 1-N-(6-(methylsulfony 1)-2,3-dihydrobenzofuran-3-yl)imidazo[1,5-a]quinoxaline-8-carbo xamide]: 321 nM and more than 10000 nM.
Consider `CN(C(=O)c1ccc2nc(N)c3cncn3c2n1)[C@@H]1COc2cc(C(F)(F)F)ccc21` [Example 30, (S)-6-amino-N-methy 1-N-(6-(trifluoromethy 1)-2,3-dihydrobenzofuran-3-yl)imidazo[1,5-a]pyrido[3,2-e]pyrazine-2-carboxamide], for which the IC50 in assay [1] was 2090 nM; in assay [2], more than 10000 nM.
For the molecule `CN(C(=O)c1cc2c(cn1)nc(N)c1cncn12)[C@@H]1COc2cc(C(F)(F)F)ncc21` [Example 31, (S)-4-amino-N-methy 1-N-(6-(trifluoromethy 1)-2,3-dihydrofuro[3,2-c]pyridin-3-yl)imidaz o[1,5-a]pyrido[3,4-e]p yrazine-8-carboxamide], the IC50 in assay [1] is 297 nM; in assay [2], more than 10000 nM.
Taken in the same sequence, the figures for `C[C@H]1OC[C@@H](N(C)C(=O)c2ccc3nc(N)c4cncn4c3c2)c2cnc(C(F)(F)F)cc21` [Example 32, 4-amino-N-methyl-N-((1R,4S)-1-methyl-7-(trifluoromethyl)-3,4-dihydro-1H-pyrano[4,3-c]pyridin-4-yl)imidazo[1,5-a]quinoxaline-8-carboxamide] were 25.7 nM and 1410 nM.
Take `Cc1cc(C(=O)N(C)[C@@H]2COc3cc(C(F)(F)F)ccc32)cc2c1nc(N)c1cncn12` [Example 37, (S)-4-amino-N,6-dime thyl-N-(6-(trifluoromethyl)-2,3-dihydrobenzofuran-3-yl)imidazo[1 ,5-a]quinoxaline-8-car boxamide]: the figures for the IC50 in assay [1] and in assay [2] were more than 3000 nM and more than 10000 nM, respectively.
For the molecule `CN(C(=O)c1ccc2nc(N)c3cc(F)cn3c2c1)[C@@H]1COc2cc(C(F)(F)F)ccc21` [Example 42, (S)-4-amino-2-fluoro-N-methyl-N-(6-(trifluoromethyl)-2,3-dihydrobenzofuran-3-yl)pyrr olo[1,2-a]quinoxaline-8-carboxamide], the IC50 in assay [1] worked out at 660 nM; in assay [2] it was 5460 nM.
Taken in the same sequence, the figures for `CN(C(=O)c1cc2c(cc1F)nc(N)c1cncn12)[C@@H]1COc2cc(-c3cscn3)ccc21` [Example 46, (S)-4-amino-7-fluoro-N-methyl-N-(6-(thiazol-4-yl)-2,3-dihydrobenzofuran-3-yl)imidaz o[1,5-a]quinoxaline-8-carboxamide] were 52.2 nM and more than 10000 nM.
As for `CN(C(=O)c1ccc2nc(N)c3nncn3c2c1)[C@@H]1COc2cc(C(F)(F)F)ccc21` [Example 48, (S)-4-amino-N-methy 1-N-(6-(trifluoromethy 1)-2,3-dihydrobenzofuran-3-yl)-[1,2,4]triazo lo[4,3-a]quinoxaline-8-carboxamide], the IC50 in assay [1] and in assay [2] was more than 3000 nM in each case.
Take `CN(C(=O)c1ccc2nc(N)n3cncc3c2c1)[C@@H]1COc2cc(C(F)(F)F)ccc21` [Example 49, (S)-5-amino-N-methy 1-N-(6-(trifluoromethy 1)-2,3-dihydrobenzofuran-3-yl)imidazo[1,5-c]quinazoline-9-carbo xamide]: the figures for the half-inhibitory concentration (IC50) in assay [1] and in assay [2] were 589 nM and more than 10000 nM, respectively.
The matching figures for `CC1OC[C@@H](N(C)C(=O)c2cc3c(cn2)nc(N)c2cncn23)c2ccc(C(F)(F)F)cc21` (stereo partly drawn) [Example 50, 4-amino-N-methyl-N-((4S)-1-methyl-7-(trifluoromethyl)isochroman-4-yl)imidazo[1,5-a]pyrido[3,4-e]pyrazine-8-carboxamide]: 4.2 nM and 196 nM.
The matching figures for `CN(C(=O)c1ccc2nc(N)c3cncn3c2c1)[C@H]1COc2cc(C(F)(F)F)ccc21` [Example 51, (R)-4-amino-N-methy 1-N-(6-(trifluoromethy 1)-2,3-dihydrobenzofuran-3-yl)imidazo[1,5-a]quinoxaline-8-carbo xamide]: 213 nM and 5860 nM.
Taken in the same sequence, the figures for `CN(C(=O)c1ccc2nc(N)c3cncn3c2c1)[C@@H]1COc2cc(CF)ccc21` [Example 52, (S)-4-amino-N-(6-(fluoromethyl)-2,3-dihydrobenzofuran-3-yl)-N-methylimidazo[1,5-a] quinoxaline-8-carbox amide] were 123 nM and more than 10000 nM.
For the molecule `CN(C(=O)c1ccc2nc(N)c3cncn3c2c1)[C@@H]1COc2cc(C(N)=O)ccc21` [Example 53, (S)4-amino-N-(6-carbamoyl-2,3-dihydrobenzofuran-3-yl)-N-met hylimidazo[1,5-a]quin oxaline-8-carboxamide], the results for the IC50 in assay [1] and in assay [2] were more than 3000 nM and more than 10000 nM, respectively.
On to `CN(C(=O)c1ccc2nc(N)c3cncn3c2c1)[C@@H]1COc2cc(N)ccc21` [Example 54, (S)-4-amino-N-(6-amino-2,3-dihydrobenzof uran-3-yl)-N-methyli midazo[1,5-a]quinoxa line-8-carboxamide], for which the figures for the IC50 in assay [1] and in assay [2] were 2500 nM and more than 10000 nM, respectively.
As for `CN(C(=O)c1cc2c(cc1F)nc(N)c1cncn12)[C@@H]1COc2cc(OC(F)(F)F)ccc21` [Example 57, (S)-4-amino-7-fluoro-N-methyl-N-(6-(trifluoromethoxy)-2,3-dihydrobenzofuran-3-yl)i midazo[1,5-a]quinoxa line-8-carboxamide], the IC50 worked out at 10.5 nM in assay [1] and 1870 nM in assay [2].
